Measurements published in paper PMC8373216, “Development and Preclinical Evaluation of New Inhaled Lipoglycopeptides for the Treatment of Persistent Pulmonary Methicillin-Resistant Staphylococcus aureus Infections” (Antimicrobial Agents and Chemotherapy, 2021).
Values after ≈ are worked out from the molar mass of the structure shown. Like-named read-outs stand apart in the source and are kept apart here.

Columns and labels:
[1] = test system: MRSA ATCC BAA 1556 (USA300) biofilm; test: MRSA biofilm killing, MBEC assay system, TSB with 1% human plasma
[2] = test system: MRSA (ATCC BAA 1556; USA300); test: Acute pulmonary MRSA infection in neutropenic rats, nebulized nose-only inhalation; type: in vivo, Staphylococcus aureus; settings: inhaled at 24 and 32 h postinfection, lungs at 48 h, 49.8 mg/kg delivered
Procedure: Rats were rendered neutropenic with intraperitoneal (i.p.) cyclophosphamide on day −4 (150 mg/kg) and day −1 (100 mg/kg) relative to the challenge. On day 0 at 0 h, rats were challenged with MRSA via intranasal instillation at a target titer of 8.0 to 8.3 log10 CFU. At 24 and 32 h postchallenge, rats were loaded into a 12-port inhalation dosing tower, where they received nebulized drug or vehicle control treatments by nose-only inhalation. Animals were euthanized at 48 h postinfection for enumeration of lung MRSA titer. MRSA lung titer of test article treatments versus control is plotted for three separate experiments. […] Statistics are based on the Kolmogorov-Smirnov test for drug treatment versus control (RV94, P = 0.01). LOD = 2.1 log10 CFU/lungset.
Male Sprague Dawley rats (Envigo, Indianapolis, IN) weighing between 225 and 250 g were used in these studies. Rats were housed and acclimated to the study facility as described in the PK methods section. Rats were rendered neutropenic through a series of intraperitoneal cyclophosphamide (Sigma-Aldrich) injections on day −4 (150 mg/kg) and day −1 (100 mg/kg) relative to the challenge. On day 0 at 0 h, rats were challenged with MRSA ATCC BAA 1556 via intranasal instillation at a target titer of 8.0 to 8.3 log10 CFU using optical density and back-counting inoculum CFU. To prepare the inoculum, a frozen aliquot of the organism stored at −80°C was thawed, transferred into TSB, and incubated at 37°C while shaking for 16 h. Cultures were then centrifuged at 2,000 × g for 5 min, and the resulting pellet was resuspended in PBS and equilibrated. For the challenge procedure, rats were first anesthetized through use of 2 to 5% isoflurane in 100% oxygen, then restrained with a scruff grip and a total of 200 μl of inoculum was quickly introduced to one nare. The rat was held in a vertical position until the challenge was fully inhaled. Rats were monitored following challenge to ensure that normal respiration was achieved and then returned to their cage. […] At necropsy, whole lungs were aseptically removed and lung weights were recorded. […]

Acinetobacter baumannii = test: Expanded panel broth microdilution MIC; type: cell-based
Staphylococcus hominis = test: Expanded panel broth microdilution MIC; type: cell-based
Cutibacterium acnes = test: Expanded panel broth microdilution MIC; type: cell-based
[3] = test system: Staphylococcus epidermidis; test: Expanded panel broth microdilution MIC/MBC; type: cell-based; settings: for MIC: Staphylococcus epidermidis
[4] = test system: Staphylococcus lugdunensis; test: Expanded panel broth microdilution MIC; type: cell-based
Streptococcus oralis = test: Expanded panel broth microdilution MIC; type: cell-based
[5] = test system: MRSA ATCC BAA 1556 (USA300); test: In-house broth microdilution MIC screening; type: cell-based, Staphylococcus aureus; settings: Staphylococcus aureus, read-out: MIC Value, MRSA ATCC BAA 1556
[6] = test system: Staphylococcus haemolyticus; test: Expanded panel broth microdilution MIC; type: cell-based
Streptococcus pneumoniae = test: Expanded panel broth microdilution MIC/MBC; type: cell-based
Streptococcus mitis = test: Expanded panel broth microdilution MIC/MBC; type: cell-based; settings: for MIC: Streptococcus mitis
Clostridium. perfringens = test: microbe, parasite or virus in culture; type: cell-based
Streptococcus agalactiae = test: Expanded panel broth microdilution MIC/MBC; type: cell-based
[7] = test system: Streptococcus dysgalactiae; test: Expanded panel broth microdilution MIC/MBC; type: cell-based; settings: for MIC: Streptococcus dysgalactiae
E. coli = test: Expanded panel broth microdilution MIC; type: cell-based; settings: Escherichia coli
Clostridioides difficile = test: Expanded panel broth microdilution MIC; type: cell-based
[8] = test system: Peptostreptococcus anaerobius; test: Expanded panel broth microdilution MIC; type: cell-based

CN[C@H](CC(C)C)C(=O)N[C@H]1C(=O)N[C@@H](CC(N)=O)C(=O)N[C@H]2C(=O)N[C@H]3C(=O)N[C@H](C(=O)N[C@H](C(=O)O)c4cc(O)cc(O)c4-c4cc3ccc4O)[C@H](O)c3ccc(c(Cl)c3)Oc3cc2cc(c3O[C@@H]2O[C@H](CO)[C@@H](O)[C@H](O)[C@H]2O[C@H]2C[C@](C)(N)[C@H](O)[C@H](C)O2)Oc2ccc(cc2Cl)[C@H]1O [Vancomycin, vancomycin]
Maximum reduction in MRSA biofilm titer relative to control ([1]; MBEC, 512 μg/ml): 1.1 log10 CFU/peg | Concentrations with statistically significant reduction versus control biofilm ([1]; MBEC, two-way ANOVA, Bonferroni): ≥ 16 µg/mL | Reduction in MRSA biofilm titer ([1]; plasma-supplemented MBEC assay, dose not stated): ~1 log10 CFU/peg | Average increase in lung MRSA titer versus inhaled vehicle control [2]: 0.1 log10 CFU | MIC (Acinetobacter baumannii; A. baumannii MMX 6974, colistinR): > 64 µg/mL | MIC (Acinetobacter baumannii; Acinetobacter baumannii): > 64 µg/mL | MIC (Acinetobacter baumannii; Acinetobacter baumannii, NCTC13304): > 64 µg/mL | MIC (Staphylococcus hominis): 0.5 µg/mL (≈ 0.345 µM) | MIC (Staphylococcus hominis; ATCC27844): 0.5 µg/mL (≈ 0.345 µM) | MIC (Cutibacterium acnes; ATCC6919): 0.25 µg/mL (≈ 0.173 µM) | MIC (Cutibacterium acnes; ATCC11827): 0.12 µg/mL (≈ 0.0828 µM) | MIC (Cutibacterium acnes; read-out: MIC (median)): 0.19 µg/mL (≈ 0.131 µM) | MIC:MBC ([3]; S. epidermidis MRSE, MBC on one organism): 1 | MIC ([3]; ATCC49134, S. epidermidis ATCC 49134, MSSE): 0.5 µg/mL (≈ 0.345 µM) | MIC ([3]; MRSE, S. epidermidis MMX 762, MRSE): 1 µg/mL (≈ 0.69 µM) | MIC ([3]; MRSE, S. epidermidis MMX 5145, MRSE): 1 µg/mL (≈ 0.69 µM) | MIC ([3]; MRSE, read-out: MIC (median), S. epidermidis MRSE, 2 isolates): 1 µg/mL (≈ 0.69 µM) | MIC ([3]; S. epidermidis MSSE, 1 isolate): 0.5 µg/mL (≈ 0.345 µM) | MIC ([4]; S. lugdunensis, 1 isolate): 0.25 µg/mL (≈ 0.173 µM) | MIC ([4]; Staphylococcus lugdunensis): 0.25 µg/mL (≈ 0.173 µM) | MIC (Streptococcus oralis; S. oralis MGS, 1 isolate): 0.5 µg/mL (≈ 0.345 µM) | MIC (Streptococcus oralis; Streptococcus oralis): 0.5 µg/mL (≈ 0.345 µM) | MIC [5]: 1 µg/mL (≈ 0.69 µM) | MIC [6]: 1 µg/mL (≈ 0.69 µM) | MIC ([6]; ATCC29970): 1 µg/mL (≈ 0.69 µM) | MIC:MBC (Streptococcus pneumoniae; S. pneumoniae PISP, MBC on one organism): 8 | MIC (Streptococcus pneumoniae; S. pneumoniae PRSP, 1 isolate): 0.25 µg/mL (≈ 0.173 µM) | MIC (Streptococcus pneumoniae; Streptococcus pneumoniae): 0.12 µg/mL (≈ 0.0828 µM) | MIC (Streptococcus pneumoniae; Streptococcus pneumoniae, ATCC49619): 1 µg/mL (≈ 0.69 µM) | MIC (Streptococcus pneumoniae; Streptococcus pneumoniae, PRSP): 0.25 µg/mL (≈ 0.173 µM) | MIC (Streptococcus pneumoniae; Streptococcus pneumoniae, read-out: MIC (median)): 0.6 µg/mL (≈ 0.414 µM) | MIC:MBC (Streptococcus mitis; S. mitis MGS, MBC on one organism): 1 | MIC (Streptococcus mitis): 0.25 µg/mL (≈ 0.173 µM) | MIC (Streptococcus mitis; ATCC49456): 0.25 µg/mL (≈ 0.173 µM) | MIC (Streptococcus mitis; read-out: MIC (median)): 0.25 µg/mL (≈ 0.173 µM) | MIC (Clostridium. perfringens): 0.25 µg/mL (≈ 0.173 µM) | MIC (Clostridium. perfringens; ATCC13124, read-out: MIC): 0.25 µg/mL (≈ 0.173 µM) | MIC (Streptococcus agalactiae; S. agalactiae MMX 4115, ermR): 0.25 µg/mL (≈ 0.173 µM) | MIC (Streptococcus agalactiae; S. agalactiae ermR, 1 isolate): 0.25 µg/mL (≈ 0.173 µM) | MIC:MBC (Streptococcus agalactiae; S. agalactiae, MBC on one organism): 4 | MIC (Streptococcus agalactiae; Streptococcus agalactiae): 0.25 µg/mL (≈ 0.173 µM) | MIC (Streptococcus agalactiae; Streptococcus agalactiae, ATCC13813): 0.25 µg/mL (≈ 0.173 µM) | MIC (Streptococcus agalactiae; Streptococcus agalactiae, read-out: MIC (median)): 0.25 µg/mL (≈ 0.173 µM) | MIC:MBC ([7]; S. dysgalactiae, MBC on one organism): >8 | MIC ([7]; S. dysgalactiae MMX 5121): 0.25 µg/mL (≈ 0.173 µM) | MIC ([7]; S. dysgalactiae MMX 5123): 0.25 µg/mL (≈ 0.173 µM) | MIC ([7]; S. dysgalactiae MMX 5124): 0.25 µg/mL (≈ 0.173 µM) | MIC ([7]; read-out: MIC (median), S. dysgalactiae, 3 isolates): 0.25 µg/mL (≈ 0.173 µM) | MIC (E. coli): > 64 µg/mL | MIC (E. coli; ATCC25922): > 64 µg/mL | MIC (Clostridioides difficile; ATCCBAA1805, C. difficile ATCC BAA-1805, ribo 027): 0.5 µg/mL (≈ 0.345 µM) | MIC (Clostridioides difficile; ATCCBAA1870, C. difficile ATCC BAA-1870, NAP1;ribo 027): 1 µg/mL (≈ 0.69 µM) | MIC (Clostridioides difficile; C. difficile ATTC 700057, toxAB-): 0.25 µg/mL (≈ 0.173 µM) | MIC (Clostridioides difficile; C. difficile NAP1;ribo 027, 1 isolate): 1 µg/mL (≈ 0.69 µM) | MIC (Clostridioides difficile; C. difficile ribo 027, 1 isolate): 0.5 µg/mL (≈ 0.345 µM) | MIC (Clostridioides difficile; C. difficile toxAB-, 1 isolate): 0.25 µg/mL (≈ 0.173 µM) | MIC [8]: 0.12 µg/mL (≈ 0.0828 µM) | MIC ([8]; ATCC27337): 0.12 µg/mL (≈ 0.0828 µM)
